Laboratory results as given in ChEMBL document CHEMBL1138894, “Synthesis and biological investigation of S-aryl-S-DABO derivatives as HIV-1 inhibitors” (Bioorg Med Chem Lett, 2006).
Active and inactive are the calls of the source. The calls are words filed in the database; no cut-off is given here.

Key:
[1] = test system: Human immunodeficiency virus type 1 reverse transcriptase (Human immunodeficiency virus 1), Q72547 [K103N]; experiment: Inhibition of HIV1 reverse transcriptase K103N mutant at 400uM
[2] = test system: Human immunodeficiency virus type 1 reverse transcriptase (Human immunodeficiency virus 1), Q72547 [Y181I]; experiment: Inhibition of HIV1 reverse transcriptase Y181I mutant at 400uM
MT4 = experiment: Cytotoxicity against MT4 cells by MTT assay; assay type: functional; settings: Homo sapiens
[3] = target: Human immunodeficiency virus type 1 reverse transcriptase (Human immunodeficiency virus 1) (UniProt Q72547)
[4] = target: Human immunodeficiency virus type 1 reverse transcriptase (Human immunodeficiency virus 1) (UniProt Q72547); experiment: Inhibition of wild type HIV1 reverse transcriptase at 400uM
[5] = target: Human immunodeficiency virus type 1 reverse transcriptase (Human immunodeficiency virus 1) (UniProt Q72547); experiment: Selectivity index (CC50/EC50); assay type: functional

With `COc1ccc(Sc2nc(O)c(C)c(Cc3c(Cl)cccc3Cl)n2)cn1` the Activity [1] was “inactive”, the Activity [2] was “inactive” and the CC50 (MT4) was greater than 61.3 µM. For the same compound, the ID50 [3] was 3.5 µM.
With `COc1ccc(Sc2nc(O)c(C)c(Cc3c(F)cccc3F)n2)cc1` the Activity [1] was “inactive”, the Activity [2] was “inactive” and the CC50 (MT4) was 57.5 µM. For the same compound, the Activity [4] was “inactive”.
`O=C1Nc2ccc(Cl)cc2C(C#CC2CC2)(C(F)(F)F)O1` (single isomer, unassigned) [EFAVIRENZ] was tested, and the CC50 (MT4) was greater than 0.32 µM.
`COc1ccc(Sc2nc(O)c(C)c(Cc3c(Cl)cccc3Cl)n2)cc1` was tested, and the Activity [1] was “inactive”, the Activity [2] was “inactive” and the CC50 (MT4) was greater than 61.4 µM. For the same compound, the Activity [4] was “inactive”.
`Cc1c(O)nc(Sc2ccccc2)nc1Cc1c(Cl)cccc1Cl` was tested, and the Activity [1] was “inactive”, the Activity [2] was “inactive” and the CC50 (MT4) was greater than 66.3 µM. It also gave an ID50 [3] of 36 µM.
With `Cc1c(O)nc(Sc2ccccc2)nc1Cc1c(F)cccc1F` the Activity [1] was “inactive”, the Activity [2] was “inactive” and the CC50 (MT4) was greater than 72.7 µM. It also gave a Selectivity index [5] greater than 835 and an ID50 [3] of 32 µM.
`Cc1c(O)nc(Sc2ccc(C#N)cc2)nc1Cc1c(Cl)cccc1Cl` was tested, and the Activity [1] was “inactive”, the Activity [2] was “inactive” and the CC50 (MT4) was 27.6 µM. It also gave an ID50 [3] of 23 µM.
With `Cc1c(O)nc(Sc2ccc(F)cc2F)nc1Cc1c(F)cccc1F` the Activity [1] was “inactive”, the Activity [2] was “inactive” and the CC50 (MT4) was greater than 65.8 µM. The ID50 [3] was 30 µM.
With `Cc1c(O)nc(Sc2ccc(Cl)cc2)nc1Cc1c(F)cccc1F` the Activity [1] was “inactive”, the Activity [2] was “inactive” and the CC50 (MT4) was greater than 66.1 µM. The ID50 [3] was 22 µM.
In the case of `Cc1c(O)nc(Sc2ccc(F)cc2F)nc1Cc1c(Cl)cccc1Cl`, the Activity [1] is reported as “inactive”, the Activity [2] is reported as “inactive” and the CC50 (MT4) is reported as greater than 60.5 µM. For the same compound, the ID50 [3] was 10 µM.
In the case of `Cc1ccnc2c1NC(=O)c1cccnc1N2C1CC1` [NEVIRAPINE], the CC50 (MT4) is reported as greater than 7.5 µM.
Compound `Cc1cn([C@H]2C[C@H](N=[N+]=[N-])[C@@H](CO)O2)c(=O)[nH]c1=O` [ZIDOVUDINE] has a CC50 (MT4) of 3.7 µM.
